Values joined by “and” are separate entries in the source; they are usually repeats but may differ in a detail not shown here. Equal values may be shown once. ± gives the expanded uncertainty stated by the source.
Legend:
[1] = Boiling temperature at pressure P; conditions: Liquid, Ebulliometric method (Recirculating still)
[2] = Liquid, Ebulliometric method (Recirculating still)
[3] = refractive index (Na D-line) (dimensionless); conditions: 101 kPa, Liquid, Standard Abbe refractometry
[4] = refractive index (Na D-line) (dimensionless); xn = mol fraction of the nth substance listed; conditions: 101 kPa, Liquid, Standard Abbe refractometry

For CO [methanol], the “Boiling temperature at pressure P” value ([1]; 40 kPa) was 42.6 ± 2.8 °C, the “Boiling temperature at pressure P” value ([1]; 46.66 kPa) was 46 ± 2.6 °C and the “Boiling temperature at pressure P” value ([1]; 58.8 kPa) was 51.2 ± 2.3 °C. For the same molecule, the “Boiling temperature at pressure P” value ([1]; 67.59 kPa) was 54.4 ± 2.1 °C and the “Boiling temperature at pressure P” value ([1]; 76.13 kPa) was 57.5 ± 2.1 °C.

In the case of O [water], the “vapor or sublimation pressure” value ([2]; 319.6 K) is reported as 10.1 ± 4 kPa, the “vapor or sublimation pressure” value ([2]; 354.8 K) is reported as 50.6 ± 4 kPa and the “vapor or sublimation pressure” value ([2]; 373.2 K) is reported as 101.33 ± 4 kPa. The refractive index ([3]; 293.2 K) was 1.3332 ± 0.0004 and the refractive index ([3]; 298.2 K) was 1.3327 ± 0.0004.

Work on O [water] + CC1CCC(=O)O1 yielded a refractive index ([4]; 293.2 K, x2 = 0) of 1.3332 ± 0.0004 and a refractive index ([4]; 298.2 K, x2 = 0) of 1.3327 ± 0.0004.

With CC1CCC(=O)O1 (stereo not given) [γ-valerolactone] the “vapor or sublimation pressure” value ([2]; 347.1 K) was 0.67 kPa, the “vapor or sublimation pressure” value ([2]; 356 K) was 1.33 kPa and the “vapor or sublimation pressure” value ([2]; 370.4 K) was 2.67 ± 4 kPa. For the same molecule, the “vapor or sublimation pressure” value ([2]; 384.5 K) was 5.07 ± 4 kPa, the “vapor or sublimation pressure” value ([2]; 401.4 K) was 10.1 ± 4 kPa and 10.13 ± 4 kPa and the “vapor or sublimation pressure” value ([2]; 416.4 K) was 17.33 ± 4 kPa. The “vapor or sublimation pressure” value ([2]; 426.5 K) was 24 ± 4 kPa, the “vapor or sublimation pressure” value ([2]; 435.3 K) was 31.6 ± 4 kPa and the “vapor or sublimation pressure” value ([2]; 442.7 K) was 39.46 ± 4 kPa. The “vapor or sublimation pressure” value ([2]; 451.5 K) was 50.6 ± 4 kPa and 50.66 ± 4 kPa, the “vapor or sublimation pressure” value ([2]; 459.2 K) was 62.26 ± 4 kPa and the “vapor or sublimation pressure” value ([2]; 465.3 K) was 73.06 ± 4 kPa. The “vapor or sublimation pressure” value ([2]; 469 K) was 80.53 ± 4 kPa, the “vapor or sublimation pressure” value ([2]; 477.8 K) was 101.19 ± 4 kPa and the “vapor or sublimation pressure” value ([2]; 480.2 K) was 101.33 ± 4 kPa. It also gave a refractive index ([3]; 293.2 K) of 1.4339 ± 0.0004 and a refractive index ([3]; 298.2 K) of 1.4316 ± 0.0004.

For CC1CCC(=O)O1 (stereo not given) [γ-valerolactone] + O, the refractive index ([4]; 293.2 K, x1 = 0.0158) was 1.342 ± 0.0004, the refractive index ([4]; 293.2 K, x1 = 0.0318) was 1.3505 ± 0.0004 and the refractive index ([4]; 293.2 K, x1 = 0.0532) was 1.3591 ± 0.0004. For the same molecule, the refractive index ([4]; 293.2 K, x1 = 0.0789) was 1.3682 ± 0.0004, the refractive index ([4]; 293.2 K, x1 = 0.1066) was 1.3761 ± 0.0004 and the refractive index ([4]; 293.2 K, x1 = 0.1405) was 1.3837 ± 0.0004. The refractive index ([4]; 293.2 K, x1 = 0.1855) was 1.3913 ± 0.0004, the refractive index ([4]; 293.2 K, x1 = 0.2295) was 1.3987 ± 0.0004 and the refractive index ([4]; 293.2 K, x1 = 0.2964) was 1.4062 ± 0.0004. The refractive index ([4]; 293.2 K, x1 = 0.3833) was 1.4135 ± 0.0004, the refractive index ([4]; 293.2 K, x1 = 0.5097) was 1.4204 ± 0.0004 and the refractive index ([4]; 293.2 K, x1 = 0.7092) was 1.4273 ± 0.0004. For the same molecule, the refractive index ([4]; 293.2 K, x1 = 1) was 1.4339 ± 0.0004, the refractive index ([4]; 298.2 K, x1 = 0.0158) was 1.3411 ± 0.0004 and the refractive index ([4]; 298.2 K, x1 = 0.0318) was 1.3499 ± 0.0004. The refractive index ([4]; 298.2 K, x1 = 0.0532) was 1.3585 ± 0.0004, the refractive index ([4]; 298.2 K, x1 = 0.0789) was 1.3671 ± 0.0004 and the refractive index ([4]; 298.2 K, x1 = 0.1066) was 1.3751 ± 0.0004. For the same molecule, the refractive index ([4]; 298.2 K, x1 = 0.1405) was 1.3826 ± 0.0004, the refractive index ([4]; 298.2 K, x1 = 0.1855) was 1.39 ± 0.0004 and the refractive index ([4]; 298.2 K, x1 = 0.2295) was 1.397 ± 0.0004. For the same molecule, the refractive index ([4]; 298.2 K, x1 = 0.2964) was 1.4046 ± 0.0004, the refractive index ([4]; 298.2 K, x1 = 0.3833) was 1.4119 ± 0.0004 and the refractive index ([4]; 298.2 K, x1 = 0.5097) was 1.4186 ± 0.0004. For the same molecule, the refractive index ([4]; 298.2 K, x1 = 0.7092) was 1.4259 ± 0.0004 and the refractive index ([4]; 298.2 K, x1 = 1) was 1.4316 ± 0.0004.

Source: the NIST ThermoML archive (doi:10.1021/acs.jced.5b00849)
